Assay results: PubChem BioAssay AID1189 (EPA DSSTox, 2008)
The source made the active and inactive calls.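 How the source made its calls: active means a tumor-causing dose value with its tumor site reported for any sex and species group of a rodent or other animal cancer study; inconclusive means only studies judged inadequate by the national testing program; inactive means tested in at least one study, none positive.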

Assay: DSSTox (CPDBAS) Carcinogenic Potency Database Summary SingleCellCall Results
Conditions: animal chronic carcinogenicity bioassays, CPDB summary call
Summary of the method: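 Literature-derived summary: each substance receives an overall carcinogenic/non-carcinogenic category drawn from long-term bioassays in rats, mice, hamsters, dogs or primates, using the most positive sex-species experiment and minimal evidence criteria.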

Row | Structure (SMILES) | outcome
1 | O=C1OC(O)C(C(Cl)Cl)=C1Cl (centres undefined) | active
2 | O=c1ccc2ccccc2o1 | active; inactive
3 | C[C@@H]1Cc2c(Cl)cc(C(=O)N[C@@H](Cc3ccccc3)C(=O)O)c(O)c2C(=O)O1 | active
4 | c1ccc2c(c1)Nc1ccccc1S2 | inactive
5 | CCCCC1(COC(=O)CCC(=O)O)C(=O)N(c2ccccc2)N(c2ccccc2)C1=O | inactive
6 | Nc1ccccc1C(=O)O | inactive; active
7 | O=C/C(Cl)=C(/Cl)C(=O)O | inactive
8 | CCOC(=O)C(O)(c1ccc(Cl)cc1)c1ccc(Cl)cc1 | active
9 | CN(CC(O)CO)N=O (centres undefined) | active
10 | CCCl | active; inactive
11 | C=O | active
12 | CCCCCCCCCC[N+](C)(C)[O-] | inactive
13 | CS(=O)(=O)OCCCNCCCOS(C)(=O)=O | inactive; active
14 | CCCCCCCCCCCCN=C(N)N | inactive
15 | CN(N=O)c1ncnc2c1ncn2[C@@H]1O[C@H](CO)[C@@H](O)[C@H]1O | active
16 | C1CC2OC2CC1C1CO1 (centres undefined) | inactive
17 | CCOC(=O)CBr | inactive
18 | Nc1ccc2c(n1)[nH]c1ccccc12 | active
19 | CCn1cc(C(=O)O)c(=O)c2ccc(C)nc21 | active
20 | CC(C)O | inactive
21 | CCOCCc1c(-c2ccccc2)nc(N)n2ncnc12 | active; inactive
22 | [N-]=[N+]=CC(=O)OC[C@H](N)C(=O)O | active
23 | CCOc1ccc(NC(C)=O)cc1 | active; inactive

Row | Structure (SMILES) | outcome
24 | CN(C)c1ccc(Cc2ccc(N(C)C)cc2)cc1 | active
25 | NC(Cc1ccc(O)c(O)c1)C(=O)O (centres undefined) | inactive
26 | COP(=S)(OC)Oc1ccc(SC)c(C)c1 | inactive
27 | O=C1CCCCCN1 | inactive
28 | O=C1NC(=O)C(c2ccccc2)(c2ccccc2)N1 | active
29 | COc1cc2c(c3oc(=O)c4c(c13)CC[C@H]4O)[C@@H]1C=CO[C@H]1O2 | active
30 | O=C(Nc1ccc2c(c1)Cc1ccccc1-2)C(F)(F)F | active
31 | Cc1ccc(C)c(OCCCC(C)(C)C(=O)O)c1 | active; inactive
32 | O=C1OC(C(O)CO)C(O)=C1O (centres undefined) | inactive
33 | O=c1c(O)c(-c2ccc(O)cc2)oc2cc(O)cc(O)c12 | inactive
34 | CC(C)(OCc1ccc(-c2ccc(Cl)cc2)cc1)C(=O)O | active
35 | Nc1nnc(-c2ccc([N+](=O)[O-])o2)o1 | active
36 | CN(C)C(=S)[S-].CN(C)C(=S)[S-].[Cu+2] | inactive
37 | CC1=C(C(=O)OCCN(Cc2ccccc2)c2ccccc2)C(c2cccc([N+](=O)[O-])c2)C(P2(=O)OCC(C)(C)CO2)=C(C)N1 (centres undefined) | inactive
38 | CCCCNN | active
39 | O=NN(CC(F)(F)F)CC(F)(F)F | inactive
40 | COC(=O)C(c1ccccc1)C1CCCCN1 (centres undefined) | active
41 | CC(=O)Nc1ccc2c(c1)Cc1ccccc1-2 | active
42 | O=C(O)CN(CC(=O)O)CC(=O)O | active
43 | CC1(C)C(=O)NC(=O)NC1=O | inactive; active
44 | Nc1ccc2ccccc2c1S(=O)(=O)O | inactive
45 | C=CC1=C(C)C2=CC3=NC(=C(CC(=O)[O-])C4=NC(=C(C)C4=C([O-])[O-])C=c4[n-]c(c(C)c4CC)=CC1=N2)[C@@H](CCC(=O)[O-])[C@@H]3C.[Cu+2].[Na+].[Na+].[Na+] | inactive
46 | ClCCOCCCl | active

Row | Structure (SMILES) | outcome
47 | O=NN1CCCCCCCCCCCC1 | active
48 | CCC1CO1 (centres undefined) | active; inactive
49 | O=S1(=O)CC=CC1 | inactive
50 | ClCC(Cl)CCl | active; inactive
51 | CCN(N=O)C(=O)NCC(C)=O | active
52 | NS(=O)(=O)c1cc(C(=O)O)c(NCc2ccco2)cc1Cl | active; inactive
53 | CCc1nc(N)nc(N)c1-c1ccc(Cl)cc1 | inactive
54 | CC(C)=CCC/C(C)=C/C=O | inactive
55 | O=c1[nH]cc(F)c(=O)[nH]1 | active; inactive
56 | CC(=O)Nc1ccc(CC(=O)O)cc1 | inactive
57 | NC(=S)Nc1cccc2ccccc12 | inactive
58 | C1CCOC1 | active; inactive
59 | Cc1cc2ncccc2c2nc(N)n(C)c12 | active
60 | CC(=O)N(C(C)=O)c1cccc2c1Cc1ccccc1-2 | active
61 | O=S1OCC2C(CO1)C1(Cl)C(Cl)=C(Cl)C2(Cl)C1(Cl)Cl (centres undefined) | inactive; active
62 | CCCCCCCCCCCN(C)N=O | active; inactive
63 | c1ccc2c(c1)cc1ccc3cccc4ccc2c1c34 | active; inactive
64 | Cc1cc(O)c(C)c2c1OC(C)(CCCC(C)CCCC(C)CCCC(C)C)CC2 (centres undefined) | active
65 | CC(O)CN(C)c1ccc(NN)nn1 (centres undefined) | inactive
66 | O=C(O)c1cc(Oc2ccc(C(F)(F)F)cc2Cl)ccc1[N+](=O)[O-] | active
67 | O=c1cc[nH]c(=S)[nH]1 | active; inactive
68 | ClCc1ccccn1 | inactive
69 | Nc1ccc(-c2ccc(N)c(N)c2)cc1N | active

Row | Structure (SMILES) | outcome
70 | O=P(OCC(Br)CBr)(OCC(Br)CBr)OCC(Br)CBr (centres undefined) | active
71 | O=NN(CC(=O)O)CC(=O)O | inactive
72 | N#CS | inactive
73 | [Se] | inactive
74 | Cc1ccc(N=Nc2c(O)c(S(=O)(=O)O)cc3ccc(S(=O)(=O)O)cc23)c(C)c1 | active; inactive
75 | ClC=C(Cl)Cl | active; inactive
76 | C/C=C1/C[C@@H](C)[C@@](C)(O)C(=O)OC/C2=C/CN(C)CC[C@@H](OC1=O)C2=O | active
77 | Cc1cccc(C)c1NC(=O)CN1CCCC1=O | inactive
78 | CC(=O)NNc1ccccc1 | active
79 | S=C=Nc1ccccc1 | inactive
80 | COc1ccc(C(Cl)=C(c2ccc(OC)cc2)c2ccc(OC)cc2)cc1 | inactive
81 | Nc1cc(S(=O)(=O)O)cc2cc(S(=O)(=O)O)c(N=Nc3ccc(-c4ccc(N=Nc5c(S(=O)(=O)O)cc6cc(S(=O)(=O)O)cc(N)c6c5O)cc4)cc3)c(O)c12 | active
82 | CNCCC(Oc1ccc(C(F)(F)F)cc1)c1ccccc1 (centres undefined) | inactive; active
83 | CC(=O)Nc1ccc(-c2ccc(F)cc2)cc1 | active
84 | O=CNNC=O | active
85 | CCCC[C@H](C)[C@@H](OC(=O)C[C@H](CC(=O)O)C(=O)O)[C@@H](C[C@H](C)C[C@@H](O)CCCC[C@@H](O)C[C@H](O)[C@H](C)N)OC(=O)C[C@H](CC(=O)O)C(=O)O | active; inactive
86 | C=CC(=O)c1ccc2c(c1)OCO2 | inactive
87 | COc1cc(-c2ccc(N)c(OC)c2)ccc1N | active; inactive
88 | Cc1ccc(NC(N)=O)cc1 | active
89 | C=CCNN | active
90 | CCCCCCC(=O)/C=C/CCCCCCCCC(=O)OC | inactive; active
91 | OCC(CO)(CBr)CBr | active
92 | Cc1ccc(N)c(C)c1 | active

Row | Structure (SMILES) | outcome
93 | OCCBr | active; inactive
94 | CC=O | active; inactive
95 | ClC1(Cl)C2(Cl)C3C4(Cl)C1(Cl)C1(Cl)C4(Cl)C(Cl)(Cl)C3(Cl)C21Cl (centres undefined) | active; inactive
96 | Cc1ccc2c(c1)C(N1CCN(C)CC1)=Nc1ccccc1S2 | inactive
97 | CCC(CC)C(=O)NC(N)=O | inactive; active
98 | C[C@@H]1CC2(O[C@@H]2C)C(=O)O[C@@H]2CCN(C)C/C=C(/COC(=O)[C@]1(C)O)C2=O (some centres undefined) | active; inactive
99 | CC(C)=CCl | active
100 | CN(N=O)c1ccncc1 | inactive; active
101 | NNC(=O)c1ccccc1 | active
102 | Nc1ncn[nH]1 | active; inactive
103 | CCOP(=O)(CC1CO1)OCC (centres undefined) | inactive
104 | c1ccc(Nc2ccc3ccccc3c2)cc1 | inactive
105 | Cc1ccc(O)c(C(C)(C)C)c1 | inactive
106 | O=C(O)[C@@H]1[C@H](C(=O)O)[C@@]2(Cl)C(Cl)=C(Cl)[C@]1(Cl)C2(Cl)Cl | active
107 | Clc1ccc2c(c1)C(c1ccccc1)=NCc1nncn1-2 | inactive; active
108 | Clc1cnc(Oc2ccc(Oc3ncc(Cl)cc3Cl)cc2)c(Cl)c1 | inactive
109 | Cc1ccccc1N=O | active
110 | NNc1nc(-c2ccc([N+](=O)[O-])cc2)cs1 | active
111 | COS(C)(=O)=O | active; inactive
112 | c1ccc2c(c1)[nH]c1cnccc12 | inactive
113 | Cn1cnc2nc(N)[nH]c(=O)c21 | inactive
114 | O=C1CCc2ccccc2O1 | active; inactive
115 | O=C(O)CNCC(=O)O | inactive

Row | Structure (SMILES) | outcome
116 | C1CO1 | active
117 | O=C(c1ccccc1)C(O)c1ccccc1 (centres undefined) | inactive; active
118 | COc1c(Cl)c(Cl)c(Cl)c(Cl)c1Cl | active
119 | NC(=S)Nc1ccccc1 | inactive
120 | CN(N=O)C1=Nc2ccc(Cl)cc2C(c2ccccc2)=[N+]([O-])C1 | inactive
121 | C[C@H]1CCCCN1N=O | active
122 | NN | active
123 | CCc1cc(C(N)=S)ccn1 | active; inactive
124 | CCOC1=C(O)C(=O)O[C@@H]1[C@@H](O)CO | inactive
125 | CN(N=O)c1ccc(F)cc1 | active
126 | CCc1ccccc1 | active
127 | O=[N+]([O-])c1cc([N+](=O)[O-])c(Cl)c(Cl)c1Cl | inactive
128 | O=S(=O)(c1ccc(Cl)cc1)c1cc(Cl)c(Cl)cc1Cl | inactive
129 | O=[As]O | inactive
130 | CC1=CC(=C(c2ccc(N)cc2)c2ccc(N)cc2)C=CC1=N | inactive
131 | [O]=[Cr](=[O])([OH])[O][Cr](=[O])(=[O])[OH] | active
132 | OCC(CO)N[C@H]1C[C@](O)(CO)[C@@H](O)[C@H](O)[C@H]1O | inactive
133 | COc1ccc(O)cc1 | active
134 | Cc1[nH]cnc1CSCCN=C(NC#N)N(C)N=O | inactive; active
